# According to US5925631A, “Alkylated styrenes as prodrugs to COX-2 inhibitors” (Merck & Co., Inc., priority 1998, dated 1999):
# System: Rat Paw Edema
# Experiment: Rat paw edema assay (carrageenan)
# Type: in vivo, rat (Male Sprague-Dawley)
# Conditions: po, p.o. 1 h before subplantar carrageenan (500 μg per paw), paw volume at 3 h, read-out: Rat Paw Edema ED50, dose of prodrug required to reduce edema formation by 50% as compared to vehicle control
# Protocol: Male Sprague-Dawley rats (150-200 g) are fasted overnight and are given, p0, either vehicle (1% methocel or 5% Tween 80) or a test compound. One hr later, a line is drawn using a permanent marker at the level above the ankle in one hind paw to define the area of the paw to be monitored. The paw volume (V0) is measured using a plethysmometer (Ugo-Basile, Italy) based on the principle of water displacement. The animals are then injected subplantarly with 50 μl of 1% carrageenan solution in saline (FMC Corp, Me.) into the paw using an insulin syringe with a 25-gauge needle (i.e. 500 μg carrageenan per paw). Three hr later, the paw volume (V3) is measured and the increases in paw volume (V3 - VO) are calculated. The animals are sacrificed by CO2 asphyxiation and the absence or presence of stomach lesions scored. Data is compared with the vehicle-control values and percent inhibition calculated. All treatment groups are coded to eliminate observer bias.
# Compounds of the present invention are prodrugs of inhibitors of COX-2 and are thereby useful in the treatment of COX-2 mediated diseases as enumerated above. The extent of conversion of these compounds to the active COX-2 inhibitors may be seen in the representative results shown in Table III along with their antiinflammatory activity. The plasma levels indicated are the maximum rat plasma concentrations of the active COX-2 inhibitor observed when the rat was treated with a 20 mg/kg oral dose of the indicated prodrug. The ED50 values in the rat paw edema assay represent the dose of prodrug required to reduce edema formation by 50% as compared to the vehicle control.
row,Structure (SMILES),ED50 [mg/kg]
1,"CC(C)(O)/C(=C(\CO)c1cccc(F)c1)c1ccc(S(C)(=O)=O)cc1 [Example 1, 2-(3-Fluorophenyl)-4-methyl-3-(4-(methylsulfonyl)-phenyl)-2-(Z)-penten-1,4-diol]",10
2,"COC(C)(C)/C(=C(\C(=O)N(C)C)c1cccc(F)c1)c1ccc(S(C)(=O)=O)cc1 [Example 4, N,N-Dimethyl-2-(3-fluorophenyl)-4-methoxy-4-methyl-3-(4-(methylsulfonyl)phenyl)-2-(Z)-pentenamide]",1.6
3,"COC(=O)/C(=C(/c1ccc(S(C)(=O)=O)cc1)C(C)(C)OC)c1cccc(F)c1 [Example 6, Methyl 2-(3-fluorophenyl)-4-methoxy-4-methyl-3-(4-(methylsulfonyl)phenyl)-2-(Z)-pentenoate]",2.1
